How the values were obtained:
Details in all cases: treatment time: 5 days
MIAPACA2 [1] = test: relative viability (fraction of vehicle control); higher = more viable / less inhibited
Description: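 CCK-8 viability of MIAPACA2 cells with empty vector or constitutively active YAP S127A, treated with KRAS G12C inhibitors for 5 days, normalised to vehicle control.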

SW1573 = tested on: SW1573
Description: (§1)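 CCK-8 viability of KRAS G12C-mutant cancer cell lines transfected with control, YAP/TAZ or TEAD1-4 siRNAs and treated with KRAS G12C inhibitors for 5 days; IC50 fitted in Prism after normalising absorbance at 450 nm to vehicle control.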

MIAPACA2 [2] = tested on: MIAPACA2
Description: as §1

KYSE410 = tested on: KYSE410
Description: as §1

H358 = tested on: H358
Description: as §1

H1373 = tested on: H1373
Description: as §1

H2030 [3] = tested on: H2030
Description: as §1

H2030 [4] = test: relative viability (fraction of vehicle control); higher = more viable / less inhibited
Description: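 CCK-8 viability of H2030 cells transfected with control, YAP/TAZ or TEAD1-4 siRNAs and treated with KRAS G12C inhibitors for 5 days. Values are normalised to vehicle control.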

C=C(F)C(=O)N1CCN(c2nc(OC[C@@H]3CCCN3C)nc3c2CCN(c2cccc4cccc(Cl)c24)C3)C[C@@H]1CC#N [MRTX849]
Details	IC50 (cell viability, 5 days) [µM]	relative viability
H358, siRNA knockdown (Con = control): Con	0.00945	–
H358, siRNA knockdown (Con = control): TEAD1234_si1	0.00561	–
H358, siRNA knockdown (Con = control): TEAD1234_si2	0.00374	–
H358, siRNA knockdown (Con = control): YAP_WWTR1_si1	0.00552	–
H358, siRNA knockdown (Con = control): YAP_WWTR1_si2	0.00533	–
H1373, siRNA knockdown (Con = control): Con	0.0821	–
H1373, siRNA knockdown (Con = control): YAP_WWTR1_si1	0.0193	–
H1373, siRNA knockdown (Con = control): YAP_WWTR1_si2	0.0114	–
H2030 [3], siRNA knockdown (Con = control): Con	1.5	–
H2030 [3], siRNA knockdown (Con = control): TEAD1234_si2	0.028	–
H2030 [4], log10 concentration (uM): 0, siRNA knockdown: TEAD1-4 siRNA 1	–	0.333
H2030 [4], log10 concentration (uM): 0, siRNA knockdown: TEAD1-4 siRNA 2	–	0.289
H2030 [4], log10 concentration (uM): 0, siRNA knockdown: YAP/TAZ siRNA 1	–	0.531
H2030 [4], log10 concentration (uM): 0, siRNA knockdown: YAP/TAZ siRNA 2	–	0.441
H2030 [4], log10 concentration (uM): 0, siRNA knockdown: negative control siRNA	–	0.768
H2030 [4], log10 concentration (uM): 0.69897, siRNA knockdown: TEAD1-4 siRNA 1	–	0.0176
H2030 [4], log10 concentration (uM): 0.69897, siRNA knockdown: TEAD1-4 siRNA 2	–	0.0364
H2030 [4], log10 concentration (uM): 0.69897, siRNA knockdown: YAP/TAZ siRNA 1	–	0.0187
H2030 [4], log10 concentration (uM): 0.69897, siRNA knockdown: YAP/TAZ siRNA 2	–	0.0145
H2030 [4], log10 concentration (uM): 0.69897, siRNA knockdown: negative control siRNA	–	0.162
H2030 [4], log10 concentration (uM): -0.30103, siRNA knockdown: TEAD1-4 siRNA 1	–	0.413
H2030 [4], log10 concentration (uM): -0.30103, siRNA knockdown: TEAD1-4 siRNA 2	–	0.358
H2030 [4], log10 concentration (uM): -0.30103, siRNA knockdown: YAP/TAZ siRNA 1	–	0.458
H2030 [4], log10 concentration (uM): -0.30103, siRNA knockdown: YAP/TAZ siRNA 2	–	0.496
H2030 [4], log10 concentration (uM): -0.30103, siRNA knockdown: negative control siRNA	–	0.814
H2030 [4], log10 concentration (uM): -1, siRNA knockdown: TEAD1-4 siRNA 1	–	0.468
H2030 [4], log10 concentration (uM): -1, siRNA knockdown: TEAD1-4 siRNA 2	–	0.437
H2030 [4], log10 concentration (uM): -1, siRNA knockdown: YAP/TAZ siRNA 1	–	0.409
H2030 [4], log10 concentration (uM): -1, siRNA knockdown: YAP/TAZ siRNA 2	–	0.238
H2030 [4], log10 concentration (uM): -1, siRNA knockdown: negative control siRNA	–	0.814
H2030 [4], log10 concentration (uM): -1.30103, siRNA knockdown: TEAD1-4 siRNA 1	–	0.473
H2030 [4], log10 concentration (uM): -1.30103, siRNA knockdown: TEAD1-4 siRNA 2	–	0.428
H2030 [4], log10 concentration (uM): -1.30103, siRNA knockdown: YAP/TAZ siRNA 1	–	0.625
H2030 [4], log10 concentration (uM): -1.30103, siRNA knockdown: YAP/TAZ siRNA 2	–	0.322
H2030 [4], log10 concentration (uM): -1.30103, siRNA knockdown: negative control siRNA	–	0.795
H2030 [4], log10 concentration (uM): -2, siRNA knockdown: TEAD1-4 siRNA 1	–	0.676
H2030 [4], log10 concentration (uM): -2, siRNA knockdown: TEAD1-4 siRNA 2	–	0.707
H2030 [4], log10 concentration (uM): -2, siRNA knockdown: YAP/TAZ siRNA 1	–	0.901
H2030 [4], log10 concentration (uM): -2, siRNA knockdown: YAP/TAZ siRNA 2	–	0.521
H2030 [4], log10 concentration (uM): -2, siRNA knockdown: negative control siRNA	–	0.836
H2030 [4], log10 concentration (uM): -2.30103, siRNA knockdown: TEAD1-4 siRNA 1	–	0.774
H2030 [4], log10 concentration (uM): -2.30103, siRNA knockdown: TEAD1-4 siRNA 2	–	0.625
H2030 [4], log10 concentration (uM): -2.30103, siRNA knockdown: YAP/TAZ siRNA 1	–	0.958
H2030 [4], log10 concentration (uM): -2.30103, siRNA knockdown: YAP/TAZ siRNA 2	–	0.707
H2030 [4], log10 concentration (uM): -2.30103, siRNA knockdown: negative control siRNA	–	0.836
H2030 [4], log10 concentration (uM): -3, siRNA knockdown: TEAD1-4 siRNA 1	–	1.02
H2030 [4], log10 concentration (uM): -3, siRNA knockdown: TEAD1-4 siRNA 2	–	0.844
H2030 [4], log10 concentration (uM): -3, siRNA knockdown: YAP/TAZ siRNA 1	–	1.07
H2030 [4], log10 concentration (uM): -3, siRNA knockdown: YAP/TAZ siRNA 2	–	0.756
H2030 [4], log10 concentration (uM): -3, siRNA knockdown: negative control siRNA	–	0.909
H2030 [4], log10 concentration (uM): -4, siRNA knockdown: TEAD1-4 siRNA 1	–	1.14
H2030 [4], log10 concentration (uM): -4, siRNA knockdown: TEAD1-4 siRNA 2	–	0.984
H2030 [4], log10 concentration (uM): -4, siRNA knockdown: YAP/TAZ siRNA 1	–	1.17
H2030 [4], log10 concentration (uM): -4, siRNA knockdown: YAP/TAZ siRNA 2	–	0.911
H2030 [4], log10 concentration (uM): -4, siRNA knockdown: negative control siRNA	–	0.97
KYSE410, siRNA knockdown (Con = control): Con	1.26	–
KYSE410, siRNA knockdown (Con = control): TEAD1234_si1	0.415	–
KYSE410, siRNA knockdown (Con = control): TEAD1234_si2	0.0833	–
KYSE410, siRNA knockdown (Con = control): YAP_WWTR1_si1	0.08	–
KYSE410, siRNA knockdown (Con = control): YAP_WWTR1_si2	0.0272	–
MIAPACA2 [1], log10 concentration (uM): 0, ectopic expression: YAP S127A	–	0.696
MIAPACA2 [1], log10 concentration (uM): 0, ectopic expression: empty vector (YAP experiment)	–	0.0786
MIAPACA2 [1], log10 concentration (uM): 0.69897, ectopic expression: YAP S127A	–	0.15
MIAPACA2 [1], log10 concentration (uM): 0.69897, ectopic expression: empty vector (YAP experiment)	–	0.0127
MIAPACA2 [1], log10 concentration (uM): -0.30103, ectopic expression: YAP S127A	–	0.687
MIAPACA2 [1], log10 concentration (uM): -0.30103, ectopic expression: empty vector (YAP experiment)	–	0.0877
MIAPACA2 [1], log10 concentration (uM): -1, ectopic expression: YAP S127A	–	0.902
MIAPACA2 [1], log10 concentration (uM): -1, ectopic expression: empty vector (YAP experiment)	–	0.217
MIAPACA2 [1], log10 concentration (uM): -1.30103, ectopic expression: YAP S127A	–	0.924
MIAPACA2 [1], log10 concentration (uM): -1.30103, ectopic expression: empty vector (YAP experiment)	–	0.309
MIAPACA2 [1], log10 concentration (uM): -2, ectopic expression: YAP S127A	–	0.979
MIAPACA2 [1], log10 concentration (uM): -2, ectopic expression: empty vector (YAP experiment)	–	0.917
MIAPACA2 [1], log10 concentration (uM): -2.30103, ectopic expression: YAP S127A	–	1.01
MIAPACA2 [1], log10 concentration (uM): -2.30103, ectopic expression: empty vector (YAP experiment)	–	0.986
MIAPACA2 [1], log10 concentration (uM): -3, ectopic expression: YAP S127A	–	1.06
MIAPACA2 [1], log10 concentration (uM): -3, ectopic expression: empty vector (YAP experiment)	–	0.964
MIAPACA2 [1], log10 concentration (uM): -4, ectopic expression: YAP S127A	–	0.993
MIAPACA2 [1], log10 concentration (uM): -4, ectopic expression: empty vector (YAP experiment)	–	0.997
MIAPACA2 [2], siRNA knockdown (Con = control): Con	0.115	–
MIAPACA2 [2], siRNA knockdown (Con = control): TEAD1234_si1	0.0526	–
MIAPACA2 [2], siRNA knockdown (Con = control): TEAD1234_si2	0.0494	–
MIAPACA2 [2], siRNA knockdown (Con = control): YAP_WWTR1_si1	0.0344	–
MIAPACA2 [2], siRNA knockdown (Con = control): YAP_WWTR1_si2	0.0606	–
SW1573, siRNA knockdown (Con = control): Con	0.926	–
SW1573, siRNA knockdown (Con = control): TEAD1234_si1	0.0073	–
SW1573, siRNA knockdown (Con = control): TEAD1234_si2	0.0043	–
